# Data as given in patent US10844077B2, “Thiazolyl-containing compounds for treating proliferative diseases” (Dana-Farber Cancer Institute, Inc., priority 2014, dated 2020).
# Values joined by “and” are separate entries in the source; they are usually repeats but may differ in a detail not shown here. Identical values can stand only once.
# Legend:
# Assay in all cases: KINATIV assay
# Format in all cases: cell-based
# CaMK2d = CaMK2d (Homo sapiens (Human), UniProt Q13557); settings: 1 μM, 90 minutes, BCWM.1 cells
# Experimental: (§1) The cells were harvested and lysed. The lysates were directly labeled with an ATP-biotin probe. Bound kinases were identified and quantitated by ACTIVX as described in Patricelli et al., Biochemistry, 2007, 46(2): 350-358. The compounds were tested in duplicates against duplicate or quadruplicate control samples.
# AMPKa1, AMPKa2 = settings: 1 μM, 90 minutes, BCWM.1 cells
# Experimental: as §1
# PAN3 = PAN3 (Homo sapiens (Human), UniProt Q58A45); settings: 1 μM, 90 minutes, BCWM.1 cells
# Experimental: as §1
# FRK = FRK (Homo sapiens (Human), UniProt P42685); settings: 1 μM, 90 minutes, BCWM.1 cells
# Experimental: as §1
# CaMK1d = CaMK1d (Homo sapiens (Human), UniProt Q8IU85); settings: 1 μM, 90 minutes, BCWM.1 cells
# Experimental: as §1
# PIK3CG = PIK3CG (Homo sapiens (Human), UniProt P48736); settings: 1 μM, 90 minutes, BCWM.1 cells
# Experimental: as §1
# SNRK = SNRK (Homo sapiens (Human), UniProt Q9NRH2); settings: 1 μM, 90 minutes, BCWM.1 cells
# Experimental: as §1
# IKKe, TBK1 = settings: 1 μM, 90 minutes, BCWM.1 cells
# Experimental: as §1
# NEK7 = NEK7 (Homo sapiens (Human), UniProt Q8TDX7); settings: 1 μM, 90 minutes, BCWM.1 cells
# Experimental: as §1
# AurB = AurB (Homo sapiens (Human), UniProt Q96GD4); settings: 1 μM, 90 minutes, BCWM.1 cells
# Experimental: as §1
# MAP2K6 = MAP2K6 (Homo sapiens (Human), UniProt P52564); settings: 1 μM, 90 minutes, BCWM.1 cells
# Experimental: as §1
# Wnk1, Wnk2 = settings: 1 μM, 90 minutes, BCWM.1 cells
# Experimental: as §1
# p70S6Kb = p70S6Kb (Homo sapiens (Human), UniProt Q9UBS0); settings: 1 μM, 90 minutes, BCWM.1 cells
# Experimental: as §1
# MSK1, MSK2 domain1 = settings: 1 μM, 90 minutes, BCWM.1 cells
# Experimental: as §1
# CLK3 = CLK3 (Homo sapiens (Human), UniProt P49761); settings: 1 μM, 90 minutes, BCWM.1 cells
# Experimental: as §1
# SRPK1, SRPK2 = settings: 1 μM, 90 minutes, BCWM.1 cells
# Experimental: as §1
# MAP3K15, MAP3K5, MAP3K6 = settings: 1 μM, 90 minutes, BCWM.1 cells
# Experimental: as §1
# RSK1, RSK2, RSK3 domain1 = settings: 1 μM, 90 minutes, BCWM.1 cells
# Experimental: as §1
# CDK4 = CDK4 (Homo sapiens (Human), UniProt P11802); settings: 1 μM, 90 minutes, BCWM.1 cells
# Experimental: as §1
# LRRK2 = LRRK2 (Homo sapiens (Human), UniProt Q5S007); settings: 1 μM, 90 minutes, BCWM.1 cells
# Experimental: as §1
# [1] = tested on: CaMK2a, CaMK2b, CaMK2d, CaMK2g; settings: 1 μM, 90 minutes, BCWM.1 cells
# Experimental: as §1
# NEK2 = NEK2 (Homo sapiens (Human), UniProt P51955); settings: 1 μM, 90 minutes, BCWM.1 cells
# Experimental: as §1
# BLK = BLK (Homo sapiens (Human), UniProt P51451); settings: 1 μM, 90 minutes, BCWM.1 cells
# Experimental: as §1
# MLK3 = MLK3 (Homo sapiens (Human), UniProt Q16584); settings: 1 μM, 90 minutes, BCWM.1 cells
# Experimental: as §1
# eEF2K = eEF2K (Homo sapiens (Human), UniProt O00418); settings: 1 μM, 90 minutes, BCWM.1 cells
# Experimental: as §1
# GSK3B = GSK3B (Homo sapiens (Human), UniProt P49841); settings: GSK3B; 1 μM, 90 minutes, BCWM.1 cells
# Experimental: as §1
# Erk2 = Erk2 (Homo sapiens (Human), UniProt P28482); settings: 1 μM, 90 minutes, BCWM.1 cells
# Experimental: as §1
# SRC = SRC (Homo sapiens (Human), UniProt P12931); settings: 1 μM, 90 minutes, BCWM.1 cells
# Experimental: as §1
# CASK = CASK (Homo sapiens (Human), UniProt O14936); settings: 1 μM, 90 minutes, BCWM.1 cells
# Experimental: as §1
# p38d, p38g = settings: 1 μM, 90 minutes, BCWM.1 cells
# Experimental: as §1
# CaMK2g = CaMK2g (Homo sapiens (Human), UniProt Q13555); settings: 1 μM, 90 minutes, BCWM.1 cells
# Experimental: as §1
# MELK = MELK (Homo sapiens (Human), UniProt Q14680); settings: 1 μM, 90 minutes, BCWM.1 cells
# Experimental: as §1
# HPK1 = HPK1 (Homo sapiens (Human), UniProt Q92918); settings: 1 μM, 90 minutes, BCWM.1 cells
# Experimental: as §1
# PI4KA, PI4KAP2 = settings: 1 μM, 90 minutes, BCWM.1 cells
# Experimental: as §1
# RSK1 domain2 = RSK1 domain2 (Homo sapiens (Human), UniProt Q15418); settings: 1 μM, 90 minutes, BCWM.1 cells
# Experimental: as §1
# FES = FES (Homo sapiens (Human), UniProt P07332); settings: 1 μM, 90 minutes, BCWM.1 cells
# Experimental: as §1
# IRE1 = IRE1 (Homo sapiens (Human), UniProt O75460); settings: 1 μM, 90 minutes, BCWM.1 cells
# Experimental: as §1
# LYN = LYN (Homo sapiens (Human), UniProt P07948); settings: 1 μM, 90 minutes, BCWM.1 cells
# Experimental: as §1
# TYK2 domain2 = TYK2 domain2 (Homo sapiens (Human), UniProt P29597); settings: 1 μM, 90 minutes, BCWM.1 cells
# Experimental: as §1
# AurA, AurB, AurC = settings: 1 μM, 90 minutes, BCWM.1 cells
# Experimental: as §1
# TAO2 = TAO2 (Homo sapiens (Human), UniProt Q9UL54); settings: 1 μM, 90 minutes, BCWM.1 cells
# Experimental: as §1
# MAP2K6, sequence (P52564 whole entry): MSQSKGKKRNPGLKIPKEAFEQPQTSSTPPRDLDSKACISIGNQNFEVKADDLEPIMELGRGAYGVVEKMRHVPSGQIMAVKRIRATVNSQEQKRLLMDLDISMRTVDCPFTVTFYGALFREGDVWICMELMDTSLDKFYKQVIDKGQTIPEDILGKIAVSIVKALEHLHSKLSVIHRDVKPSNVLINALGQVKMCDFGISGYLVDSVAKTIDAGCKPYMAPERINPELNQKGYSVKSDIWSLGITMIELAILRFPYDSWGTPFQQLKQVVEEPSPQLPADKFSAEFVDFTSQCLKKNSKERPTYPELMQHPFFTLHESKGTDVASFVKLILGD
# HPK1, sequence (Q92918 whole entry): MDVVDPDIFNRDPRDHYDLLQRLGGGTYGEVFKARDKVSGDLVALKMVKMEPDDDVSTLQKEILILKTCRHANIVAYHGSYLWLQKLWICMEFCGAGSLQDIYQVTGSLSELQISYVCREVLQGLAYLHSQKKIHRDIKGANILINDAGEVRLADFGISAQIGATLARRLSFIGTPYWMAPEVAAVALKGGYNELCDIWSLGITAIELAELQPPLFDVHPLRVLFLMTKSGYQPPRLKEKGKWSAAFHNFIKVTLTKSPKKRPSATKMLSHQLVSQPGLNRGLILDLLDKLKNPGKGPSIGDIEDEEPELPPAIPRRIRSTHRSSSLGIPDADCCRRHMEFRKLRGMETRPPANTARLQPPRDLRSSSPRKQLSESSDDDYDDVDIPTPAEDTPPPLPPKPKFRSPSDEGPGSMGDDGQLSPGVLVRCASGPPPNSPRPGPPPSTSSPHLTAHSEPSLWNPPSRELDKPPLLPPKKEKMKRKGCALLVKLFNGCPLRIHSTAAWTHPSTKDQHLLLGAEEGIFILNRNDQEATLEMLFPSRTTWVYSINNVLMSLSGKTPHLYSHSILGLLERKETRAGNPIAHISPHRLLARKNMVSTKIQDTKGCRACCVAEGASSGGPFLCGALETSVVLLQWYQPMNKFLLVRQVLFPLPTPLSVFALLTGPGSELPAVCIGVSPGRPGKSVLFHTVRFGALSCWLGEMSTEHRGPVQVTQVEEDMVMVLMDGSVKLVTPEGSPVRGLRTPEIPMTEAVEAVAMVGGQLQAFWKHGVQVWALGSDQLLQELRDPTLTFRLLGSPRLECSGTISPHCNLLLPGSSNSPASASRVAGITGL
# LYN, sequence (P07948 whole entry): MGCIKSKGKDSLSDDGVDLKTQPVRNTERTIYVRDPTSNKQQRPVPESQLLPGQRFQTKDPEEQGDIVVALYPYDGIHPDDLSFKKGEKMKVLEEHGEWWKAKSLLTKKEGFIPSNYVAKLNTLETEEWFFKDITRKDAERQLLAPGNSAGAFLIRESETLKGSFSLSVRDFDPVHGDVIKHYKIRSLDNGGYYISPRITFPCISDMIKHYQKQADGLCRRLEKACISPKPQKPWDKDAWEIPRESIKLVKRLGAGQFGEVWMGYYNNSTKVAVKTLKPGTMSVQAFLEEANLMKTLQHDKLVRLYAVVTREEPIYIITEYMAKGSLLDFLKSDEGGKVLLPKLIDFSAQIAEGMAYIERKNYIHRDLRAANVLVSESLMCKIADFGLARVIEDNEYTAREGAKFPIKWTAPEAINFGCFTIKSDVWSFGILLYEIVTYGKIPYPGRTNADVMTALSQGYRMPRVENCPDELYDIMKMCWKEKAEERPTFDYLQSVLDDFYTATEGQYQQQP
# CaMK1d, sequence (Q8IU85 whole entry): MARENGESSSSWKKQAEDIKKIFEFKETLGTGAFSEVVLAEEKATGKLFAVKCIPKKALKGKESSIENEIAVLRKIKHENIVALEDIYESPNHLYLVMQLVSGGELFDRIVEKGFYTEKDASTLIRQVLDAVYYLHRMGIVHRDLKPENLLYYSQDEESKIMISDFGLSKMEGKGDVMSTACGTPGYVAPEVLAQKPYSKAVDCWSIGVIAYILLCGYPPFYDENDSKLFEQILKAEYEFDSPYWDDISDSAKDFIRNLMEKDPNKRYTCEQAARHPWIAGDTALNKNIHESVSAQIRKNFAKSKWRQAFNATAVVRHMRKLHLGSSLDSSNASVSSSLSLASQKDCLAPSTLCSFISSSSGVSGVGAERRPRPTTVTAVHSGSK
# SNRK, sequence (Q9NRH2 whole entry): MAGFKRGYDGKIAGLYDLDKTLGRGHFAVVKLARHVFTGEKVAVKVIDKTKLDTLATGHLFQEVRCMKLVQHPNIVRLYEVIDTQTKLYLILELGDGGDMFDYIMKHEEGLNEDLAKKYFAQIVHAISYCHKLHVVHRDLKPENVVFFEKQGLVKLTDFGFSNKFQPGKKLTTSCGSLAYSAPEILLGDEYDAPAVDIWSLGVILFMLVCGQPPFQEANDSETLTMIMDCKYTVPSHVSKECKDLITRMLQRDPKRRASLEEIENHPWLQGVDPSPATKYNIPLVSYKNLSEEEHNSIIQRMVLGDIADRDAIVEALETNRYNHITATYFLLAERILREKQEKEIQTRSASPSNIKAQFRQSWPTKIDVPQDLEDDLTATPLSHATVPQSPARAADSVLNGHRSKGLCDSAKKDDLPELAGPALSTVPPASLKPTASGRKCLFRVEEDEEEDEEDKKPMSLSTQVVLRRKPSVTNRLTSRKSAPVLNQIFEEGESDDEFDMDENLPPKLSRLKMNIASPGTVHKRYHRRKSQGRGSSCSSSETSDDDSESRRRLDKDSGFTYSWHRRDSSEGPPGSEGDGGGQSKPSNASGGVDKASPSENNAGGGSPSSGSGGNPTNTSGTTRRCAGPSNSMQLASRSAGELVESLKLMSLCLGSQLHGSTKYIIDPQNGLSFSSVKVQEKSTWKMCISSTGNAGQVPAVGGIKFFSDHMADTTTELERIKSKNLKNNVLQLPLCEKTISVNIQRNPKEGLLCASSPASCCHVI
# SRC, sequence (P12931 whole entry, looked up): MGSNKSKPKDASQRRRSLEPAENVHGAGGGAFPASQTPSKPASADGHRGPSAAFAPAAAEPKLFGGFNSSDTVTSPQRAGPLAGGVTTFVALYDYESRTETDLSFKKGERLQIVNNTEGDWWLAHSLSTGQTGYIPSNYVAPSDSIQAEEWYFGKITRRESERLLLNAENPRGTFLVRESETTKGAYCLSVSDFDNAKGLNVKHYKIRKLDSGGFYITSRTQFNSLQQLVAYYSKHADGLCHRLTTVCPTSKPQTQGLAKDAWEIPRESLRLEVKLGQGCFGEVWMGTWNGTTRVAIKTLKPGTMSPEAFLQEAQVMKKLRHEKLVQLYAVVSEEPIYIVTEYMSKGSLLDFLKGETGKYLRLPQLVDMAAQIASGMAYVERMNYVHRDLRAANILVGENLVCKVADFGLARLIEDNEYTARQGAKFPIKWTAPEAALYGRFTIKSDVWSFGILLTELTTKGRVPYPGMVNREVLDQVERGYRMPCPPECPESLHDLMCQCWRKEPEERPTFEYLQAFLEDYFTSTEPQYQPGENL
# CLK3, sequence (P49761 whole entry): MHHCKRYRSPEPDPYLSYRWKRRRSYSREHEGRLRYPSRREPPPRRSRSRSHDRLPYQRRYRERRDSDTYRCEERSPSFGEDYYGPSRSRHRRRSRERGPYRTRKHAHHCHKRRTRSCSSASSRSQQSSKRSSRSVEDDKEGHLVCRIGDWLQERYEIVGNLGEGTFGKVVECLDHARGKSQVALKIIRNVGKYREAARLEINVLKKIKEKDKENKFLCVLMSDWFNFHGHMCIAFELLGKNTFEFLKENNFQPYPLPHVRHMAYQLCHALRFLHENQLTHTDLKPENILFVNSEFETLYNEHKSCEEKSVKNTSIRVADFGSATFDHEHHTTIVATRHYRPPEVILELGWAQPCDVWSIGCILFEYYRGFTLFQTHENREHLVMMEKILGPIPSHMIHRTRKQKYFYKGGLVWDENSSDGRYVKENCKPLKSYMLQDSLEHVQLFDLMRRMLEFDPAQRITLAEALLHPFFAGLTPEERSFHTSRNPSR
# PAN3, sequence (Q58A45 whole entry): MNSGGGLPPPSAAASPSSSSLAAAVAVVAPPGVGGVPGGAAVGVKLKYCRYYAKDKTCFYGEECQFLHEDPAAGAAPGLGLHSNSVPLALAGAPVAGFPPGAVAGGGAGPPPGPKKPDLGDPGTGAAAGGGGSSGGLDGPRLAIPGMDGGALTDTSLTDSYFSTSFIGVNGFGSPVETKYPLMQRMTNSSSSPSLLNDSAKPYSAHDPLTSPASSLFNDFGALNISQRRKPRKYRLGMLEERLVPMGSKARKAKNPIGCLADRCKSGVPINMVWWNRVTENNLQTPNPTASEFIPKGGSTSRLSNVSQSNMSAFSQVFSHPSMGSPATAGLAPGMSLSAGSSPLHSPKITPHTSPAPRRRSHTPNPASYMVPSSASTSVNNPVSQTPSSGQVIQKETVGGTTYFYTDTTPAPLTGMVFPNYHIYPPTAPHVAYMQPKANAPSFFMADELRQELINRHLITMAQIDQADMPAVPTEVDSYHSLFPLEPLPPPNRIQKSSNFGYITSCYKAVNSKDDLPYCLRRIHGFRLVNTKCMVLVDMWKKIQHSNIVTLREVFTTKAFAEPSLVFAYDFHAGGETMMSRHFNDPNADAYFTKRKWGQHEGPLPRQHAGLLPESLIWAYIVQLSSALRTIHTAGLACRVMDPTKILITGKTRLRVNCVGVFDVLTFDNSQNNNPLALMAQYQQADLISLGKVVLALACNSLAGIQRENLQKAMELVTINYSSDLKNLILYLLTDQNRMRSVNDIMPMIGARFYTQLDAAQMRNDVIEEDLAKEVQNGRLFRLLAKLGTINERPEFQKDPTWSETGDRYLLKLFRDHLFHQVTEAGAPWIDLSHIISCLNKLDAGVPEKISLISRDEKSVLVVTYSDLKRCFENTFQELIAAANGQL
smiles,measurement,setting,value
C=CC(=O)N1CCC(Cn2ccc(Nc3ncc(C(=O)Nc4c(C)cccc4Cl)s3)n2)C1 (centres unmarked) [II-1],% change of MS signal compared to control sample,CaMK2d,−14.8%
same,% change of MS signal compared to control sample,"AMPKa1, AMPKa2",−19.4% and −27.3%
same,% change of MS signal compared to control sample,PAN3,−7.0%
same,% change of MS signal compared to control sample,FRK,84.0%
same,% change of MS signal compared to control sample,CaMK1d,−7.9% and −2.8%
same,% change of MS signal compared to control sample,PIK3CG,−45.9%
same,% change of MS signal compared to control sample,SNRK,47.8% and 59.8%
same,% change of MS signal compared to control sample,"IKKe, TBK1",−27.2%
same,% change of MS signal compared to control sample,NEK7,−8.5%
same,% change of MS signal compared to control sample,AurB,−7.2%
same,% change of MS signal compared to control sample,MAP2K6,−8.3% and −12.6%
same,% change of MS signal compared to control sample,"Wnk1, Wnk2",−3.8%
same,% change of MS signal compared to control sample,p70S6Kb,−57.1%
same,% change of MS signal compared to control sample,"MSK1, MSK2 domain1",−37.4%
same,% change of MS signal compared to control sample,CLK3,−22.6%
same,% change of MS signal compared to control sample,"SRPK1, SRPK2",0.0%
same,% change of MS signal compared to control sample,"MAP3K15, MAP3K5, MAP3K6",7.5%
same,% change of MS signal compared to control sample,"RSK1, RSK2, RSK3 domain1",−52.0%
same,% change of MS signal compared to control sample,CDK4,2.2%
same,% change of MS signal compared to control sample,LRRK2,−20.9%
same,% change of MS signal compared to control sample,[1],2.5%
same,% change of MS signal compared to control sample,NEK2,−6.0%
same,% change of MS signal compared to control sample,BLK,>95%
same,% change of MS signal compared to control sample,MLK3,−18.0%
same,% change of MS signal compared to control sample,eEF2K,−3.8%
same,% change of MS signal compared to control sample,GSK3B,−5.1%
same,% change of MS signal compared to control sample,Erk2,−5.8%
same,% change of MS signal compared to control sample,SRC,>90%
same,% change of MS signal compared to control sample,CASK,29.4%
same,% change of MS signal compared to control sample,"p38d, p38g",−6.6%
same,% change of MS signal compared to control sample,CaMK2g,−17.5%
same,% change of MS signal compared to control sample,MELK,4.2%
same,% change of MS signal compared to control sample,HPK1,23.0% and 12.1%
same,% change of MS signal compared to control sample,"PI4KA, PI4KAP2",−45.7%
same,% change of MS signal compared to control sample,RSK1 domain2,14.0%
same,% change of MS signal compared to control sample,FES,−15.0%
same,% change of MS signal compared to control sample,IRE1,−29.5%
same,% change of MS signal compared to control sample,LYN,88.1% and >90%
same,% change of MS signal compared to control sample,TYK2 domain2,−19.0%
same,% change of MS signal compared to control sample,"AurA, AurB, AurC",−3.6%
same,% change of MS signal compared to control sample,TAO2,−17.9%
